The record followed here is patent US7393812B2, “Methylidene mevalonates and their use as herbicides” (Dow AgroSciences LLC, priority 2004, dated 2008).

Format in all cases: in vivo
Assay [1] has as its system barnyardgrass (Echinochloa crusgalli, ECHCG). In words: Post-emergent evaluation. Conditions: for GR80: data gathered 15 days after treatment, probit analysis; for % growth reduction at the lowest rate tested: 15 days after treatment. As to the method: (§1) Seeds of the desired test plant species were planted in Grace-Sierra MetroMix® 306 planting mixture, which typically has a pH of 6.0 to 6.8 and an organic matter content of about 30 percent, in plastic pots with a surface area of 64 square centimeters. When required to ensure good germination and healthy plants, a fungicide treatment and/or other chemical or physical treatment was applied. The plants were grown for 7-21 days in a greenhouse with an approximate 15 hr photoperiod which was maintained at about 23-29° C. during the day and 22-28° C. during the night. Nutrients and water were added on a regular basis and supplemental lighting was provided with overhead metal halide 1000-Watt lamps as necessary. The plants were employed for testing when they reached the first or second true leaf stage.
(§2) A weighed amount, determined by the highest rate to be tested, of each test compound was placed in a 20 mL glass vial and was dissolved in 4 mL of a 97:3 v/v (volume/volume) mixture of acetone and dimethyl sulfoxide (DMSO) to obtain concentrated stock solutions. […] The concentrated stock solutions obtained were diluted with an aqueous mixture containing acetone, water, isopropyl alcohol, DMSO, Atplus 411F crop oil concentrate, and Triton X-155 surfactant in a 48.5:39:10:1.5:1.0:0.02 v/v ratio to obtain spray solutions of known concentration. The solutions containing the highest concentration to be tested were prepared by diluting 2 mL aliquots of the stock solution with 13 mL of the mixture and lower concentrations were prepared by serial dilution of the stock solution. Approximately 1.5 mL aliquots of each solution of known concentration were sprayed evenly onto each of the test plant pots using a DeVilbiss atomizer driven by compressed air pressure of 2 to 4 psi ([…]) to obtain thorough coverage of each plant. Control plants were sprayed in the same manner with the aqueous mixture. In this test an application rate of 1 ppm results in the application of approximately 1 g/Ha.
(§3) The treated plants and control plants were placed in a greenhouse as described above and watered by sub-irrigation to prevent wash-off of the test compounds. […] Species abbreviations as described for Table I with the following additions: soybean (Glycine max, GLXMA), rape (Brassica napus, BRSNN), chickweed (Stellaria media, STEME), cocklebur (Xanthium strumarium XANST), lambsquarters (Chenopodium album, CHEAL), violet (Viola tricolor, VIOTR), bindweed (Polygonum convolvulus, POLCO), spurge (Euphorbia heterophylla, EPHHL), Canada thistle (Cirsium arvense, CIRAR), corn (Zea mays, ZEAMX), rice (Oryza sativa, ORYSA), wheat (Triticum aestivum, TRZAS), crabgrass (Digitaria sanguinalis, DIGSA), shattercane (Sorghum vulgare, SORVU) and yellow nutsedge (Cyperus esculentus, CYPES).
(§4) By applying the well-accepted probit analysis as described by J. Berkson in Journal of the American Statistical […], 48, 565 (1953) and by D. Finney in “Probit Analysis” Cambridge University Press (1952), similar data can be used to calculate GR80 values, which are defined as growth reduction factors that correspond to the effective dose of herbicide required to kill or control 80 percent of a target plant. Species abbreviations are as previously defined.

Assay [2] has as its system chickweed (Stellaria media, STEME). In words: Post-emergent evaluation. To be noted: data gathered 15 days after treatment, probit analysis. As for the experimental part: as §1, §2, §3, §4
Assay [3] relates to giant foxtail (Setaria faberi, SETFA). In words: Post-emergent evaluation. To be noted: for GR80: data gathered 15 days after treatment, probit analysis; for % growth reduction at the lowest rate tested: 15 days after treatment. As to the method: as §1, §2, §3, §4
In assay [4] the test system is morningglory (Ipomoea hederacea, IPOHE). Briefly: Post-emergent evaluation. To be noted: data gathered 15 days after treatment, probit analysis. As for the experimental part:
as §1, §2, §3, §4

Assay [5] concerns shattercane (Sorghum vulgare, SORVU). In words: Post-emergent evaluation. To be noted: for GR80: data gathered 15 days after treatment, probit analysis. As to the method: as §1, §2, §3, §4
The subject of assay [6] is velvetleaf (Abutilon theophrasti, ABUTH). Briefly: Post-emergent evaluation. Conditions: data gathered 15 days after treatment, probit analysis. As to the method: as §1, §2, §3, §4
The test system of assay [7] is violet (Viola tricolor, VIOTR). Briefly: Post-emergent evaluation. Conditions: data gathered 15 days after treatment, probit analysis. As for the experimental part:
as §1, §2, §3, §4

In assay [8] the test system is crabgrass (Digitaria sanguinalis, DIGSA). In words: Post-emergent evaluation. Conditions: data gathered 15 days after treatment, probit analysis. As for the experimental part: as §1, §2
(§5) The treated plants and control plants were placed in a greenhouse as described above and watered by sub-irrigation to prevent wash-off of the test compounds. After 2 weeks the condition of the test plants as compared with that of the untreated plants was determined visually and scored on a scale of 0 to 100 percent where 0 corresponds to no injury and 100 corresponds to complete kill. Species abbreviations as described for Table I with the following additions: soybean (Glycine max, GLXMA), rape (Brassica napus, BRSNN), chickweed (Stellaria media, STEME), cocklebur (Xanthium strumarium XANST), lambsquarters (Chenopodium album, CHEAL), violet (Viola tricolor, VIOTR), bindweed (Polygonum convolvulus, POLCO), spurge (Euphorbia heterophylla, EPHHL), Canada thistle (Cirsium arvense, CIRAR), corn (Zea mays, ZEAMX), rice (Oryza sativa, ORYSA), wheat (Triticum aestivum, TRZAS), crabgrass (Digitaria sanguinalis, DIGSA), shattercane (Sorghum vulgare, SORVU) and yellow nutsedge (Cyperus esculentus, CYPES).
as §4

Assay [9] has as its system yellow nutsedge (Cyperus esculentus, CYPES). In words: Post-emergent evaluation. To be noted: data gathered 15 days after treatment, probit analysis. As to the method:
as §1, §2, §5, §4

The next assay concerns test plant species. Briefly: Biological assays of the enantiomers (herbicidal activity). To be noted: resolved enantiomers. As to the method: as §1, with “The plants were employed for testing when they reached the first or second true leaf stage.” left out
A weighed amount, determined by the highest rate to be tested, of each test compound was placed in a 20 mL glass vial and was dissolved in 4 mL of a 97:3 v/v (volume/volume) mixture of acetone and dimethyl sulfoxide (DMSO) to obtain concentrated stock solutions. […]
The treated plants and control plants were placed in a greenhouse as described above and watered by sub-irrigation to prevent wash-off of the test compounds. After 2 weeks the condition of the test plants as compared with that of the untreated plants was determined visually and scored on a scale of 0 to 100 percent where 0 corresponds to no injury and 100 corresponds to complete kill. […]

The subject of assay [10] is crabgrass (Digitaria sanguinalis, DIGSA). In words: Synergistic herbicidal activity, foliar track sprayer. To be noted: nonanoic acid 1120 g ae/ha alone, 14 days, 1% crop oil concentrate. As to the method: (§6) Methylidene mevalonate alone and in combination with nonanoic acid was applied to the foliage of rapidly growing plant material utilizing a track sprayer calibrated to deliver an application volume of 187 L/ha. These treatments were applied to both broadleaf and grass weed species. All treatments contained 1% crop oil concentrate. Assessment of herbicidal activity was performed visually relative to untreated controls after 14 days incubation in the greenhouse. Species abbreviations are as previously defined.

The subject of assay [11] is lambsquarters (Chenopodium album, CHEAL). The assay is described as above. Conditions: nonanoic acid 1120 g ae/ha alone, 14 days, 1% crop oil concentrate. As to the method: as §6
The test system of assay [12] is morningglory (Ipomoea hederacea, IPOHE). The description is as above. To be noted: nonanoic acid 1120 g ae/ha alone, 14 days, 1% crop oil concentrate. As for the experimental part:
as §6

The test system of assay [13] is wild oats (Avena fatua, AVEFA). The assay is described as above. To be noted: nonanoic acid 1120 g ae/ha alone, 14 days, 1% crop oil concentrate. As for the experimental part: as §6

For the compound `C=C1COC(=O)CC1(C)O` (centres unmarked) [Methylidene Mevalonolactone], the GR80 in assay [1] is listed as under 375 g ae/ha; in [2], 3032 g ae/ha; in [3] it was 430 g ae/ha; in [4] it was 725 g ae/ha; in assay [5], 615 g ae/ha; in assay [6] it was 2266 g ae/ha. Also, the GR80 is recorded as 2473 g ae/ha in assay [7], 834 g ae/ha in assay [8] and 834 g ae/ha in assay [9]. Besides, the “% growth reduction at the lowest rate tested” value in [1] amounted to 100%.
As for `C=C(CO)C(C)(O)CC(=O)[O-].[K+]` (single isomer, unassigned; (+)) [(+)-4-Methylidene Mevalonate, Potassium Salt], the GR80 in assay [1] (Potassium Salt) came out at 351 g ae/ha; in assay [2] (Potassium Salt) it was 1349 g ae/ha; in assay [3] (Potassium Salt) it was 183 g ae/ha; in assay [4] (Potassium Salt), 341 g ae/ha; in assay [5] (Potassium Salt), 490 g ae/ha; in assay [6] (Potassium Salt), 1135 g ae/ha. Moreover, the GR80 in [7] (Potassium Salt) is reported as 1865 g ae/ha; in [8] (Potassium Salt) it was 916 g ae/ha; in assay [9] (Potassium Salt) it was 429 g ae/ha. In the assay on test plant species, the herbicidal activity entry was “herbicidal activity was manifested”.
Regarding `C=C(CO)C(C)(O)CC(=O)[O-].[Na+]` (racemic), the GR80 in assay [1] was under 375 g ae/ha; in assay [2], 1358 g ae/ha; in [3], under 375 g ae/ha; in assay [4] it was 416 g ae/ha; in [5], under 375 g ae/ha; in assay [6], 965 g ae/ha. Also, the GR80 is reported as 2290 g ae/ha in assay [7], 774 g ae/ha in [8] and 375 g ae/ha in assay [9]. Also, the “% growth reduction at the lowest rate tested” value in assay [1] was determined as 98%; in assay [3], 97%; in assay [5] (lowest rate tested, 15 days after treatment), 93%.
On to `C=C(CO)C(C)(O)CC(=O)[O-].[K+]` (single isomer, unassigned; (-)) [(−)-4-Methylidene Mevalonate, Potassium Salt], for which the GR80 in [1] (Potassium Salt), in [2] (Potassium Salt), in assay [3] (Potassium Salt), in assay [4] (Potassium Salt), in [5] (Potassium Salt) and in [6] (Potassium Salt) was over 1500 g ae/ha each time. The GR80 in assay [7] (Potassium Salt), in assay [8] (Potassium Salt) and in assay [9] (Potassium Salt) was over 1500 g ae/ha each time.
`CCCCCCCCC(=O)O` [Nonanoic Acid, nonanoic acid, reference compound]: the “Actual Injury % growth reduction” value in assay [10], in assay [11], in [12] and in assay [13] was 0% throughout.
Take `C=C(CO)C(C)(O)CC(=O)[O-].[K+]` (racemic): the GR80 was under 375 g ae/ha in assay [1]; 2089 g ae/ha in [2]; under 375 g ae/ha in [3]; 375 g ae/ha in assay [4]; 400 g ae/ha in assay [5]; 720 g ae/ha in assay [6]. For the same compound, the GR80 is listed as 1768 g ae/ha in assay [7], 1003 g ae/ha in assay [8] and 603 g ae/ha in [9]. Further, the entries for the “% growth reduction at the lowest rate tested” value in assay [1] and in assay [3] were 98% and 95%, respectively.
